Tested on: Ctenocephalides felis
Test: Ctenocephalides felis oral test
Assay type: in vivo
Settings: application rate 100 ppm in citrated cattle blood, kill after 2 days
Source text: Solvent: dimethyl sulfoxide […] Dilution with citrated cattle blood gives the desired concentration. About 20 unfed adult cat fleas (Ctenocephalides felis) are placed into a chamber which is closed at the top and bottom with gauze. A metal cylinder whose bottom end is closed with parafilm is placed onto the chamber. The cylinder contains the blood/active ingredient formulation, which can be imbibed by the fleas through the parafilm membrane.

Row | Compound | efficacy [%]
1 | Cc1cc(C(F)(C(F)(F)F)C(F)(F)F)cc(C)c1-n1cc(-c2ccc(F)c(NC(=O)c3ccncc3)c2)cn1 [Example 6] | 100
2 | Cc1cc(C(F)(C(F)(F)F)C(F)(F)F)cc(C)c1-n1cc(-c2cnc(Cl)c(NC(=O)c3ccncc3)c2)cn1 [Example 12] | 100
3 | Cc1cc(C(F)(C(F)(F)F)C(F)(F)F)cc(C(F)(F)F)c1-n1cc(-c2ccc(F)c(NC(=O)c3ccsc3)c2)cn1 [Example 31] | 100
4 | Cc1cc(C(F)(C(F)(F)F)C(F)(F)F)cc(C(F)(F)F)c1-n1cc(-c2ccc(F)c(NC(=O)c3ccncc3)c2)cn1 [Example 50] | 100

Tested on: Boophilus microplus
Test: Boophilus microplus injection test
Assay type: in vivo
Settings: application rate 20 μg/animal, after 7 days, laying of fertile eggs
Experimental: Solvent: dimethyl sulfoxide […] The animals are transferred into dishes and kept in a climate-controlled room. Efficacy is assessed after 7 days by laying of fertile eggs. Eggs which are not visibly fertile are stored in a climate-controlled cabinet until the larvae hatch after about 42 days.

Row | Compound | efficacy [%]
5 | Cc1cc(C(F)(C(F)(F)F)C(F)(F)F)cc(C)c1-n1cc(-c2ccc(F)c(NC(=O)c3ccncc3)c2)cn1 [Example 6] | 100
6 | Cc1cc(C(F)(C(F)(F)F)C(F)(F)F)cc(C)c1-n1cc(-c2ccc(F)c(NC(=O)c3ccc(F)cc3)c2F)cn1 [Example 7] | 100
7 | Cc1cc(C(F)(C(F)(F)F)C(F)(F)F)cc(C)c1-n1cc(-c2cnc(Cl)c(NC(=O)c3ccncc3)c2)cn1 [Example 12] | 100
8 | Cc1cc(C(F)(C(F)(F)F)C(F)(F)F)cc(C(F)(F)F)c1-n1cc(-c2ccc(F)c(NC(=O)c3ccsc3)c2)cn1 [Example 31] | 100
9 | Cc1cc(C(F)(C(F)(F)F)C(F)(F)F)cc(C(F)(F)F)c1-n1cc(-c2ccc(F)c(NC(=O)c3ccncc3)c2)cn1 [Example 50] | 100

Tested on: Ctenocephalides felis
Test: Ctenocephalides felis in vitro contact test with adult cat fleas
Assay type: in vivo
Settings: application rate 5 μg/cm^2 (500 g/ha), after 48 h, dead or moribund fleas
Experimental: After the solvent has evaporated off, the tubes are populated with 5-10 adult cat fleas (Ctenocephalides felis), sealed with a perforated plastic lid and incubated in a horizontal position at room temperature and ambient humidity. After 48 h, efficacy is determined. To this end, the tubes are stood upright and the fleas are knocked to the base of the tube. Fleas which remain motionless at the base or move in an uncoordinated manner are considered to be dead or moribund.

Row | Compound | efficacy [%]
10 | Cc1cc(C(F)(C(F)(F)F)C(F)(F)F)cc(C)c1-n1cc(-c2ccc(F)c(NC(=O)c3ccncc3)c2)cn1 [Example 6] | 100
11 | Cc1cc(C(F)(C(F)(F)F)C(F)(F)F)cc(C)c1-n1cc(-c2ccc(F)c(NC(=O)c3ccc(F)cc3)c2F)cn1 [Example 7] | 100
12 | Cc1cc(C(F)(C(F)(F)F)C(F)(F)F)cc(C)c1-n1cc(-c2cnc(Cl)c(NC(=O)c3ccncc3)c2)cn1 [Example 12] | 100
13 | Cc1cc(C(F)(C(F)(F)F)C(F)(F)F)cc(C(F)(F)F)c1-n1cc(-c2ccc(F)c(NC(=O)c3ccncc3)c2)cn1 [Example 50] | 100

Tested on: not listed separately
Test: logP determination by HPLC on reversed-phase column (EEC Directive 79/831 Annex V.A8)
Assay type: physicochemical
Settings: Table 1; HPLC C18, acetonitrile/water with formic acid

Row | Compound | lgP
14 | Cc1cc(C(F)(C(F)(F)F)C(F)(F)F)cc(C)c1-n1cc(-c2ccc(F)c(NC(=O)c3ccncc3)c2)cn1 [Example 6] | lgP 4.04
15 | Cc1cc(C(F)(C(F)(F)F)C(F)(F)F)cc(C)c1-n1cc(-c2ccc(F)c(NC(=O)c3ccc(F)cc3)c2F)cn1 [Example 7] | lgP 4.84
16 | Cc1cc(C(F)(C(F)(F)F)C(F)(F)F)cc(C)c1-n1cc(-c2cnc(Cl)c(NC(=O)c3ccncc3)c2)cn1 [Example 12] | lgP 3.97

Tested on: Musca domestica
Test: Musca domestica test
Assay type: in vivo
Settings: application rate 100 ppm, adult houseflies, kill after 2 days
How it was run: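 Compound dissolved in DMSO (10 mg per 0.5 ml), diluted with water to test concentration and applied to a sugar-solution sponge. Vessels held 10 adult houseflies; percent kill scored after 2 days (100% = all dead).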

Row | Compound | efficacy [%]
17 | Cc1cc(C(F)(C(F)(F)F)C(F)(F)F)cc(C)c1-n1cc(-c2ccc(F)c(NC(=O)c3ccncc3)c2)cn1 [Example 6] | 100
18 | Cc1cc(C(F)(C(F)(F)F)C(F)(F)F)cc(C)c1-n1cc(-c2cnc(Cl)c(NC(=O)c3ccncc3)c2)cn1 [Example 12] | 100
19 | Cc1cc(C(F)(C(F)(F)F)C(F)(F)F)cc(C(F)(F)F)c1-n1cc(-c2ccc(F)c(NC(=O)c3ccsc3)c2)cn1 [Example 31] | 100
20 | Cc1cc(C(F)(C(F)(F)F)C(F)(F)F)cc(C(F)(F)F)c1-n1cc(-c2ccc(F)c(NC(=O)c3ccncc3)c2)cn1 [Example 50] | 100

Tested on: Rhipicephalus sanguineus
Test: Rhipicephalus sanguineus in vitro contact test with adult brown dog ticks
Assay type: in vivo
Settings: application rate 1 μg/cm^2 (100 g/ha), after 48 h, dead or moribund ticks
Experimental: After the solvent has evaporated off, the tubes are populated with 5-10 adult dog ticks (Rhipicephalus sanguineus), sealed with a perforated plastic lid and incubated in a horizontal position in the dark at room temperature and ambient humidity. After 48 h, efficacy is determined. To this end, the ticks are knocked to the base of the tube and incubated on a hotplate at 45-50° C. for not more than 5 min. Ticks which remain motionless on the base or move in such an uncoordinated manner that they are unable to deliberately avoid the heat by climbing upwards are considered to be dead or moribund.

Row | Compound | efficacy [%]
21 | Cc1cc(C(F)(C(F)(F)F)C(F)(F)F)cc(C)c1-n1cc(-c2ccc(F)c(NC(=O)c3ccncc3)c2)cn1 [Example 6] | 100

Same assay, conditions: application rate 5 μg/cm^2 (500 g/ha), after 48 h, dead or moribund ticks

Row | Compound | efficacy [%]
22 | Cc1cc(C(F)(C(F)(F)F)C(F)(F)F)cc(C)c1-n1cc(-c2ccc(F)c(NC(=O)c3ccc(F)cc3)c2F)cn1 [Example 7] | 80
23 | Cc1cc(C(F)(C(F)(F)F)C(F)(F)F)cc(C)c1-n1cc(-c2cnc(Cl)c(NC(=O)c3ccncc3)c2)cn1 [Example 12] | 80
24 | Cc1cc(C(F)(C(F)(F)F)C(F)(F)F)cc(C(F)(F)F)c1-n1cc(-c2ccc(F)c(NC(=O)c3ccncc3)c2)cn1 [Example 50] | 80

Tested on: Tetranychus urticae
Test: Tetranychus urticae spray test, OP-resistant
Assay type: in vivo
Settings: application rate 100 g/ha, all stages on bean leaf discs, after 6 days
Experimental: Solvent: 78.0 parts by weight of acetone • • 1.5 parts by weight of dimethylformamide Emulsifier: alkylaryl polyglycol ether […] To produce further test concentrations, the formulation is diluted with emulsifier-containing water. Discs of bean leaves (Phaseolus vulgaris) infested with all stages of the greenhouse red spider mite (Tetranychus urticae) are sprayed with an active ingredient formulation of the desired concentration.

Row | Compound | efficacy [%]
25 | Cc1cc(C(F)(C(F)(F)F)C(F)(F)F)cc(C)c1-n1cc(-c2ccc(F)c(NC(=O)c3ccncc3)c2)cn1 [Example 6] | 100
26 | Cc1cc(C(F)(C(F)(F)F)C(F)(F)F)cc(C)c1-n1cc(-c2ccc(F)c(NC(=O)c3ccc(F)cc3)c2F)cn1 [Example 7] | 100
27 | Cc1cc(C(F)(C(F)(F)F)C(F)(F)F)cc(C)c1-n1cc(-c2cnc(Cl)c(NC(=O)c3ccncc3)c2)cn1 [Example 12] | 100
28 | Cc1cc(C(F)(C(F)(F)F)C(F)(F)F)cc(C(F)(F)F)c1-n1cc(-c2ccc(F)c(NC(=O)c3ccsc3)c2)cn1 [Example 31] | 100
29 | Cc1cc(C(F)(C(F)(F)F)C(F)(F)F)cc(C(F)(F)F)c1-n1cc(-c2ccc(F)c(NC(=O)c3ccncc3)c2)cn1 [Example 50] | 100

Tested on: Lucilia cuprina
Test: Lucilia cuprina test
Assay type: in vivo
Settings: application rate 100 ppm, L1 larvae, kill after 2 days
How it was run: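 About 20 L1 larvae were placed in vessels of minced horsemeat containing compound, formulated in dimethyl sulfoxide and diluted with water to the test concentration. Kill (%) was scored after 2 days; 100% means all larvae dead, 0% none.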

Row | Compound | efficacy [%]
30 | Cc1cc(C(F)(C(F)(F)F)C(F)(F)F)cc(C)c1-n1cc(-c2ccc(F)c(NC(=O)c3ccncc3)c2)cn1 [Example 6] | 100
31 | Cc1cc(C(F)(C(F)(F)F)C(F)(F)F)cc(C)c1-n1cc(-c2ccc(F)c(NC(=O)c3ccc(F)cc3)c2F)cn1 [Example 7] | 80
32 | Cc1cc(C(F)(C(F)(F)F)C(F)(F)F)cc(C)c1-n1cc(-c2cnc(Cl)c(NC(=O)c3ccncc3)c2)cn1 [Example 12] | 90
33 | Cc1cc(C(F)(C(F)(F)F)C(F)(F)F)cc(C(F)(F)F)c1-n1cc(-c2ccc(F)c(NC(=O)c3ccsc3)c2)cn1 [Example 31] | 100
34 | Cc1cc(C(F)(C(F)(F)F)C(F)(F)F)cc(C(F)(F)F)c1-n1cc(-c2ccc(F)c(NC(=O)c3ccncc3)c2)cn1 [Example 50] | 100

Tested on: Spodoptera frugiperda
Test: Spodoptera frugiperda spray test
Assay type: in vivo
Settings: application rate 100 g/ha, caterpillars on maize leaf discs, after 7 days
Experimental: (§1) Solvent: 78.0 parts by weight of acetone • • 1.5 parts by weight of dimethylformamide Emulsifier: alkylaryl polyglycol ether […] To produce further test concentrations, the formulation is diluted with emulsifier-containing water. Leaf discs of maize (Zea mays) are sprayed with an active compound formulation of the desired concentration and, after drying, populated with caterpillars of the armyworm (Spodoptera frugiperda).

Row | Compound | efficacy [%]
35 | Cc1cc(C(F)(C(F)(F)F)C(F)(F)F)cc(C)c1-n1cc(-c2ccc(F)c(NC(=O)c3ccncc3)c2)cn1 [Example 6] | 100
36 | Cc1cc(C(F)(C(F)(F)F)C(F)(F)F)cc(C)c1-n1cc(-c2ccc(F)c(NC(=O)c3ccc(F)cc3)c2F)cn1 [Example 7] | 83
37 | Cc1cc(C(F)(C(F)(F)F)C(F)(F)F)cc(C)c1-n1cc(-c2cnc(Cl)c(NC(=O)c3ccncc3)c2)cn1 [Example 12] | 100
38 | Cc1cc(C(F)(C(F)(F)F)C(F)(F)F)cc(C(F)(F)F)c1-n1cc(-c2ccc(F)c(NC(=O)c3ccsc3)c2)cn1 [Example 31] | 100
39 | Cc1cc(C(F)(C(F)(F)F)C(F)(F)F)cc(C(F)(F)F)c1-n1cc(-c2ccc(F)c(NC(=O)c3ccncc3)c2)cn1 [Example 50] | 100

Tested on: Phaedon cochleariae
Test: Phaedon cochleariae spray test
Assay type: in vivo
Settings: application rate 100 g/ha, larvae on Chinese cabbage leaf discs, after 7 days
Experimental: as §1, with “Discs” for “Leaf discs”, “Chinese cabbage leaves (Brassica pekinensis)” for “maize (Zea mays)”, “ingredient” for “compound”, “larvae” for “caterpillars”, “mustard beetle (Phaedon cochleariae).” for “armyworm (Spodoptera frugiperda).”

Row | Compound | efficacy [%]
40 | Cc1cc(C(F)(C(F)(F)F)C(F)(F)F)cc(C)c1-n1cc(-c2ccc(F)c(NC(=O)c3ccncc3)c2)cn1 [Example 6] | 100
41 | Cc1cc(C(F)(C(F)(F)F)C(F)(F)F)cc(C)c1-n1cc(-c2ccc(F)c(NC(=O)c3ccc(F)cc3)c2F)cn1 [Example 7] | 100
42 | Cc1cc(C(F)(C(F)(F)F)C(F)(F)F)cc(C)c1-n1cc(-c2cnc(Cl)c(NC(=O)c3ccncc3)c2)cn1 [Example 12] | 100
43 | Cc1cc(C(F)(C(F)(F)F)C(F)(F)F)cc(C(F)(F)F)c1-n1cc(-c2ccc(F)c(NC(=O)c3ccsc3)c2)cn1 [Example 31] | 100
44 | Cc1cc(C(F)(C(F)(F)F)C(F)(F)F)cc(C(F)(F)F)c1-n1cc(-c2ccc(F)c(NC(=O)c3ccncc3)c2)cn1 [Example 50] | 100

Tested on: cattle ticks (Boophilus microplus) Parkhurst strain, SP-resistant
Test: Boophilus microplus dip test
Assay type: in vivo
Settings: application rate 100 ppm, after 7 days, laying of fertile eggs
Experimental: Test animals: cattle ticks (Boophilus microplus) Parkhurst strain, SP-resistant
Solvent: dimethyl sulfoxide
10 mg of active ingredient are dissolved in 0.5 ml of dimethyl sulfoxide. To produce a suitable formulation, the active ingredient solution is diluted with water to the concentration desired in each case.
This active ingredient formulation is pipetted into tubes. 8-10 engorged adult female cattle ticks (Boophilus microplus) are transferred into a further tube with holes. The tube is immersed into the active ingredient formulation, and all the ticks are completely wetted. After the liquid has run out, the ticks are transferred on filter disks into plastic dishes and stored in a climate-controlled room.
Efficacy is assessed after 7 days by laying of fertile eggs. Eggs which are not visibly fertile are stored in a climate-controlled cabinet until the larvae hatch after about 42 days. An efficacy of 100% means that none of the ticks has laid any fertile eggs; 0% means that all the eggs are fertile.

Row | Compound | efficacy [%]
45 | Cc1cc(C(F)(C(F)(F)F)C(F)(F)F)cc(C(F)(F)F)c1-n1cc(-c2ccc(F)c(NC(=O)c3ccsc3)c2)cn1 [Example 31] | 90

Reference: patent US10202351B2, “Pyrazolyl derivatives as pest control agents” (BAYER ANIMAL HEALTH GMBH, priority 2015, dated 2019)
